Measurements: publication PMC6043372 (Journal of medicinal chemistry, 2018)
≈ marks a conversion by molar mass, not a printed value.

What was measured:
[1] = tested on: M. bovis BCG; assay: microbe, parasite or virus in culture; type: cell-based; details: Mycobacterium tuberculosis variant bovis BCG, read-out: MIC MIC50
[2] = tested on: human red blood cells; assay: Compound-induced hemolysis of human red blood cells; details: hemolyze 50% of human RBCs vs 2% Triton X-100
[3] = tested on: M. bovis BCG; type: cell-based, Mycobacterium bovis BCG
[4] = tested on: piniBAC promoter; type: cell-based, Mycobacterium bovis BCG; details: 0.4-100 μM, 24 h
[5] = Electrophilic reactivity to cysteamine by 1H NMR; type: physicochemical; details: DMSO-d6, 1% acetic acid, up to 24 h
[6] = lecithin-dodecane lipid layer, 24 h, 25°C
[7] = for tolerability in PK study: 25 mg/kg PO single dose, mice; for levels in lung: CD-1, mouse, in vivo
[8] = physchem; details: pH 7.4
[9] = tested on: M. bovis BCG; type: cell-based, Mycobacterium bovis BCG; remark: listed apart in the source
[10] = tested on: Mtb H37Rv; set-up: species or system BALB/c mice; details: mouse, in vivo
[11] = 100 mg/kg po daily over 4 weeks (24 doses)

For `CCCCCCCCn1cc(CN2CCC3(CC2)OCCCO3)c2ccc(OCCC)cc21` [Compound 57f], the MIC50 [1] was 0.5 to 0.7 µM (≈ 0.228 to 0.32 µg/mL).

For `CCCCCCCCn1cc(CN2CCC3(CC2)OC[C@@H](C)O3)c2ccc(OC)cc21` [Compound 8], the HC50 [2] was 75 µM.

With `CCCCCCCCn1cc(CN2CCCCCC2)c2c(F)cccc21` [Compound 71, 3-(azepan-1-ylmethyl)-4-fluoro-1-octyl-1H indole] the “membrane potential (DiOC2 red/green ratio)” value [3] was “no depolarization at these early time points”.

`CCCCCCCCn1cc(CN2CCC3(CC2)OCCCO3)c2ccc(OC(C)C)cc21` [Compound 57g] gave an MIC50 [1] of 0.5 to 0.7 µM (≈ 0.228 to 0.32 µg/mL).

With `CCCCCCCCn1cc(CN2CCC3(CC2)OCCCO3)c2ccc(C#N)cc21` [Compound 57e] the MIC50 [1] was 0.5 to 0.7 µM (≈ 0.212 to 0.297 µg/mL).

For `CCCCCCCCn1cc(CN2CCC3(CC2)OCCCS3)c2ccc(OC)cc21` [Compound 13], the “induction of piniBAC promoter activity” value [4] was “increased the transcriptional activity of the piniBAC in a concentration dependent manner”, the “electrophilic reactivity to cysteamine” value [5] was “limited electrophilic reactivity” and the “PAMPA Effective Permeability (Pe)” value [6] was “Cannot be determined”. For the same compound, the “tolerability in PK study” value [7] was “did not cause obvious adverse effects” and the solubility [8] was 30.9 ± 1.3 µM (≈ 13.7 µg/mL).

In the case of `CCCCCCCCn1cc(CN2CCC3(CC2)OCCO3)c2ccc(OC)cc21` [Compound 1, 8-[(6-methoxy-1-octyl-1H-indolyl-3-yl)methyl]-1,4-dioxa-8-azaspiro[4,5]decane], the “kill of mycobacterial cultures by 48 h (time-kill)” value [9] is reported as “still viable at 48h”, the “induction of piniBAC promoter activity” value [4] is reported as “broadly similar to that of isoniazid” and the “bacterial loads in lungs and spleen (CFU)” value [10] is reported as “only reduced the splenic bacterial load”. For the same compound, the “PAMPA Effective Permeability (Pe)” value [6] was “Cannot be determined”, the levels in lung [7] was ~ 1 μM and the “adverse effects during treatment period” value [11] was “no adverse effects were detected”. It also gave a solubility [8] of 23.9 ± 0.8 µM (≈ 9.91 µg/mL) and an HC50 [2] of 75 µM.

`CCCCCCCCn1cc(CN2CCC3(CC2)OC[C@H](C)O3)c2ccc(OC)cc21` [Compound 7] gave an HC50 [2] of 51 µM.

For `CCCCCCCCn1cc(CN2CCC3(CC2)OCCCO3)c2ccc(OC)cc21` [Compound 12], the “induction of piniBAC promoter activity” value [4] was “increased the transcriptional activity of the piniBAC in a concentration dependent manner”, the “electrophilic reactivity to cysteamine” value [5] was “limited electrophilic reactivity” and the “bacterial loads in lungs and spleen (CFU)” value [10] was “significantly inhibited bacterial growth in both organs”. The “PAMPA Effective Permeability (Pe)” value [6] was “Cannot be determined”, the “tolerability in PK study” value [7] was “did not cause obvious adverse effects” and the “Lung concentration at 5 h” value ([7]; 25 mg/kg PO, CD1 mice) was 1408 ng/g. For the same compound, the levels in lung [7] was ~ 3 μM, the “adverse effects during treatment period” value [11] was “no adverse effects were detected” and the HC50 [2] was 64 µM.
